Experimental data taken from ChEMBL document CHEMBL1122826, “4-[2-(Di-n-propylamino)ethyl]-2(3H)-indolone: a prejunctional dopamine receptor agonist” (J Med Chem, 1985).

Molecular target: Dopamine receptor
Assay: Inhibitory activity against constrictor response to electrical stimulation in the isolated perfused rabbit ear artery(REA) expressing dopamine receptor
Design: species or system Oryctolagus cuniculus

SMILES	EC50
CCCN(CCC)CCc1cccc(NC(C)=O)c1	> 1000 nM
CCCN(CCC)CCc1cccc(O)c1	700 nM
